Test results reported in ChEMBL document CHEMBL6074641, “Polypharmacological Drug Design Guided by Integrating Phenotypic and Restricted Fragment Docking Strategies” (J Med Chem, 2024).
The source made the active and inactive calls. The calls are words filed in the database; no cut-off is given here.

Key:
BV-2 [1] = assay: Anti-necroptosis activity in LPS/zVAD stimulated mouse BV-2 cells preincubated with LPS for 11 hrs followed by compound addition for 1 hr and exposed to zVAD-fmk for another 24 hrs by Cellcounting-Lite 2.0 luminescent cell viability assay; details: time 25.0 hrs
[2] = target: T1, Receptor-interacting serine/threonine-protein kinase 1 (Homo sapiens) (UniProt Q13546); assay: (§1) Inhibition of recombinant RIPK1 (1 to 327 residues) (unknown origin) expressed in Escherichia coli BL21([…]) using MBP as substrate preincubated for 15 mins followed by substrate and ATP addition and measured after 90 mins by ADP-Glo luminescence […] assay; details: time 105.0 min
T1 sequence (whole entry): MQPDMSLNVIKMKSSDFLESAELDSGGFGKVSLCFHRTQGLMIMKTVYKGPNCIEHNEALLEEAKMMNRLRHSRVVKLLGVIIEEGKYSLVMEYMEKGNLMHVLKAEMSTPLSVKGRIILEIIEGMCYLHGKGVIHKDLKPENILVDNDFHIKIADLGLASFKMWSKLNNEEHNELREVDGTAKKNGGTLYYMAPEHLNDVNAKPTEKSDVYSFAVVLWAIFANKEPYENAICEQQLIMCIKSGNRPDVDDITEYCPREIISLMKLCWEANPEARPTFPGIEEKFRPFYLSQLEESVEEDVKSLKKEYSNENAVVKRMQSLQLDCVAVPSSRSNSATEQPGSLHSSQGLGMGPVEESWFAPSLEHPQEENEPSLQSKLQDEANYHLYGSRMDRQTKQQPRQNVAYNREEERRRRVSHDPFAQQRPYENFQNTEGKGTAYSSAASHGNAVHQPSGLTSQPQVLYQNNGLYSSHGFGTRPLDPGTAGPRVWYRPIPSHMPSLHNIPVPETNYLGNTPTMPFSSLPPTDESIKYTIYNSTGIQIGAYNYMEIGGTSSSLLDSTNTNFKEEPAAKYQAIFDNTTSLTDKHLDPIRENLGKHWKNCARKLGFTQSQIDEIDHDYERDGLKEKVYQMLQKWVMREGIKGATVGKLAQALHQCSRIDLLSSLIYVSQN

[3] = target: ALK tyrosine kinase receptor (Homo sapiens, UniProt Q9UM73); assay: Inhibition of recombinant ALK (1060 to end residues) (unknown origin) expressed in Escherichia coli […] using IGF1Rtide as substrate preincubated for 15 mins followed by substrate and ATP addition and measured after 90 mins by ADP-Glo luminescence […] assay
[4] = target: Mitogen-activated protein kinase kinase kinase kinase 4 (Homo sapiens, UniProt O95819); assay: Inhibition of recombinant MAP4K4 (1 to 328 residues) (unknown origin) expressed in Escherichia coli BL21([…]) using MBP as substrate preincubated for 15 mins followed by substrate and ATP addition and measured after 90 mins by ADP-Glo luminescence […] assay
BV-2 [5] = assay: cells; details: Mus musculus
[6] = target: T2, Receptor-interacting serine/threonine-protein kinase 1 (Homo sapiens, UniProt Q13546); assay: as §1
T2 sequence (Q13546 whole entry): T1 sequence (whole entry)

BV-2 [7] = assay: Anti-inflammatory activity against LPS/zVAD treated mouse BV-2 cells assessed as decrease in IL-1beta release at 100 nM in presence of PF-06260933 and crizotinib by ELISA; type: functional, cell-based
BV-2 [8] = assay: (§2) Synergistic anti-necroptosis activity in LPS/zVAD stimulated mouse BV-2 cells preincubated with LPS for 11 hrs followed by compound addition for 1 hr and exposed to zVAD-fmk for another 24 hrs in presence of crizotinib by Cellcounting-Lite 2.0 luminescent cell viability assay; type: functional, cell-based; details: time 25.0 hrs
Mus musculus [9] = assay: Anti-alzheimer activity against 5 month old APP/PS1 transgenic mouse model assessed as decrease in restlessness at 10 mg/kg, po administered 4 times per week for 4 weeks; type: functional, organism-based
BV-2 [10] = assay: Downregulation of p-RIPK1 expression in mouse BV-2 cells at 100 nM in presence of PF-06260933 and crizotinib by Western blotting analysis; type: functional, cell-based
Mus musculus [11] = assay: Anti-alzheimer activity against 5 month old APP/PS1 transgenic mouse model assessed as decrease in anxiety level at 10 mg/kg, po administered 4 times per week for 4 weeks; type: functional, organism-based
BV-2 [12] = assay: as §2, with “cells at 100 nM” for “cells”, “PF-06260933 and entrectinib” for “crizotinib”; type: functional, cell-based; details: time 25.0 hrs
BV-2 [13] = assay: Anti-necroptosis activity in LPS/zVAD stimulated mouse BV-2 cells assessed as inhibition of p65 nuclear translocation at 100 nM in presence of PF-06260933 and crizotinib; type: functional; parameters: scale not given: the % may be the effect or the level left
BV-2 [14] = assay: as §2, with “cells at 100 nM” for “cells”, “of PF-06260933 and” for “of”; type: functional, cell-based; details: time 25.0 hrs
BV-2 [15] = assay: Anti-necroptosis activity in LPS/zVAD stimulated mouse BV-2 cells assessed as inhibition of p65 activation at 100 nM in presence of PF-06260933 and crizotinib; type: functional; parameters: scale not given: the % may be the effect or the level left
BV-2 [16] = assay: Synergistic anti-necroptosis activity in LPS/zVAD stimulated mouse BV-2 cells at 100 nM preincubated with LPS for 11 hrs followed by compound addition for 1 hr and exposed to zVAD-fmk for another 24 hrs in presence of PF-06260933 and TAE684 by Cellcounting-Lite 2.0 luminescent cell viability assay; type: functional, cell-based; details: time 25.0 hrs
Mus musculus [17] = assay: Anti-alzheimer activity against 8 month old 3xTg mouse model assessed as decrease in anxiety level at 10 mg/kg, po administered 4 times per week for 4 weeks; type: functional, organism-based
Mus musculus [18] = assay: Anti-alzheimer activity against 8 month old 3xTg mouse model assessed as decrease in restlessness at 10 mg/kg, po administered 4 times per week for 4 weeks; type: functional, organism-based
BV-2 [19] = assay: Synergistic anti-necroptosis activity in LPS/zVAD stimulated mouse BV-2 cells at 100 nM preincubated with LPS for 11 hrs followed by compound addition for 1 hr and exposed to zVAD-fmk for another 24 hrs in presence of PF-06260933 and LDK378 by Cellcounting-Lite 2.0 luminescent cell viability assay; type: functional, cell-based; details: time 25.0 hrs
BV-2 [20] = assay: Anti-necroptosis activity in LPS/zVAD stimulated mouse BV-2 cells assessed as inhibition of p65 nuclear translocation at 100 nM; type: functional, cell-based
BV-2 [21] = assay: Anti-necroptosis activity in LPS/zVAD stimulated mouse BV-2 cells assessed as inhibition of extranuclear p65 at 100 nM; type: functional, cell-based
BV-2 [22] = assay: Downregulation of p-MLKL expression in mouse BV-2 cells at 100 nM in presence of PF-06260933 and crizotinib by Western blotting analysis; type: functional, cell-based
BV-2 [23] = assay: Anti-inflammatory activity against LPS/zVAD treated mouse BV-2 cells assessed as decrease in TNFalpha release at 100 nM in presence of PF-06260933 and crizotinib by ELISA; type: functional, cell-based
BV-2 [24] = assay: Cytotoxicity against mouse BV-2 cells; type: toxicity, cell-based
BV-2 [25] = assay: Synergistic anti-necroptosis activity in LPS/zVAD stimulated mouse BV-2 cells preincubated with LPS for 11 hrs followed by compound addition for 1 hr and exposed to zVAD-fmk for another 24 hrs in presence of Nec-1 by Cellcounting-Lite 2.0 luminescent cell viability assay; type: functional, cell-based; details: time 25.0 hrs
BV-2 [26] = assay: Anti-necroptosis activity in LPS/zVAD stimulated mouse BV-2 cells at 10 uM preincubated with LPS for 11 hrs followed by compound addition for 1 hr and exposed to zVAD-fmk for another 24 hrs by Cellcounting-Lite 2.0 luminescent cell viability assay; type: functional, cell-based; details: time 25.0 hrs

Sequence of ALK tyrosine kinase receptor (Q9UM73 whole entry, the tested form may be a part): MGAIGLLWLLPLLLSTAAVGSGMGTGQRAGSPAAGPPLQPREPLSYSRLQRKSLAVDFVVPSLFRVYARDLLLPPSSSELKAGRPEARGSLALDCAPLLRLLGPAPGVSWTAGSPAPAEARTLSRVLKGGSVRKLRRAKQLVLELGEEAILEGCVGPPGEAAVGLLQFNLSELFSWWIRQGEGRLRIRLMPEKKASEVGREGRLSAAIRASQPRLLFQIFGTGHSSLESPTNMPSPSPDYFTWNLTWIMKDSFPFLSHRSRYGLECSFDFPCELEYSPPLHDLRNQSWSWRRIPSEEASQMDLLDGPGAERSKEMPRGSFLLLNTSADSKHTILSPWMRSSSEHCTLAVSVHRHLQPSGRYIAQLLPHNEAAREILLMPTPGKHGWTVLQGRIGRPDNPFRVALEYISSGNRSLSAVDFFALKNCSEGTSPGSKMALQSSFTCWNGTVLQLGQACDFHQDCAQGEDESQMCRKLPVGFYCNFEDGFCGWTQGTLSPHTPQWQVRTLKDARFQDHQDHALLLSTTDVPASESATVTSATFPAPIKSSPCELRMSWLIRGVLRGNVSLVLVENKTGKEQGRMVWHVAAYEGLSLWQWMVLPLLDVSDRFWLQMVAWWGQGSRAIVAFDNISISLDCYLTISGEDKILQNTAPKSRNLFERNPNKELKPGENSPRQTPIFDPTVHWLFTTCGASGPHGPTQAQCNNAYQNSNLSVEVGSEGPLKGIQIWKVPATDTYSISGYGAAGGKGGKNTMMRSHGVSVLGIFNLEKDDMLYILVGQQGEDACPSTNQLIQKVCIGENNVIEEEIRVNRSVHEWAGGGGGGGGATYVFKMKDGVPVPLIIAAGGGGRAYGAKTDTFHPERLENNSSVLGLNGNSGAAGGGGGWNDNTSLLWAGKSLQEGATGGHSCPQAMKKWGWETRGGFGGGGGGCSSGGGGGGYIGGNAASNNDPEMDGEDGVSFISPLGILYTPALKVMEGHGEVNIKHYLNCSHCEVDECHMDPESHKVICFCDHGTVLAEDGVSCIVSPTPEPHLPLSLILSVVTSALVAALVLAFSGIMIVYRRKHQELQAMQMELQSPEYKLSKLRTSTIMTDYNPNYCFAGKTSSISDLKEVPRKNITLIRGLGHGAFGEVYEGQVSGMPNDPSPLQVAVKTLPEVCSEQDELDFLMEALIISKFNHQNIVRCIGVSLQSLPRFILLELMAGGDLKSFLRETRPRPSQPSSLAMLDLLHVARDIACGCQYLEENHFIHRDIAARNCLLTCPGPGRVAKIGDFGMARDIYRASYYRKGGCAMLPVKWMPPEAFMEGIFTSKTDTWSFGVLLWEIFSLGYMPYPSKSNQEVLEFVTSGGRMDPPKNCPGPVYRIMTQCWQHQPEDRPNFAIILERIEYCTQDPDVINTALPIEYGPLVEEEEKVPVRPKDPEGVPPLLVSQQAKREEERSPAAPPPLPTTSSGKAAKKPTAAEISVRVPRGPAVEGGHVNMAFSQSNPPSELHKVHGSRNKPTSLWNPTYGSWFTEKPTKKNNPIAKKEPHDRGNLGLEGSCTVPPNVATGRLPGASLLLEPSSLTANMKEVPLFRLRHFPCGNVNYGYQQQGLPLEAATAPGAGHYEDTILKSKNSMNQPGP
Sequence of Mitogen-activated protein kinase kinase kinase kinase 4 (O95819 whole entry, the tested form may be a part): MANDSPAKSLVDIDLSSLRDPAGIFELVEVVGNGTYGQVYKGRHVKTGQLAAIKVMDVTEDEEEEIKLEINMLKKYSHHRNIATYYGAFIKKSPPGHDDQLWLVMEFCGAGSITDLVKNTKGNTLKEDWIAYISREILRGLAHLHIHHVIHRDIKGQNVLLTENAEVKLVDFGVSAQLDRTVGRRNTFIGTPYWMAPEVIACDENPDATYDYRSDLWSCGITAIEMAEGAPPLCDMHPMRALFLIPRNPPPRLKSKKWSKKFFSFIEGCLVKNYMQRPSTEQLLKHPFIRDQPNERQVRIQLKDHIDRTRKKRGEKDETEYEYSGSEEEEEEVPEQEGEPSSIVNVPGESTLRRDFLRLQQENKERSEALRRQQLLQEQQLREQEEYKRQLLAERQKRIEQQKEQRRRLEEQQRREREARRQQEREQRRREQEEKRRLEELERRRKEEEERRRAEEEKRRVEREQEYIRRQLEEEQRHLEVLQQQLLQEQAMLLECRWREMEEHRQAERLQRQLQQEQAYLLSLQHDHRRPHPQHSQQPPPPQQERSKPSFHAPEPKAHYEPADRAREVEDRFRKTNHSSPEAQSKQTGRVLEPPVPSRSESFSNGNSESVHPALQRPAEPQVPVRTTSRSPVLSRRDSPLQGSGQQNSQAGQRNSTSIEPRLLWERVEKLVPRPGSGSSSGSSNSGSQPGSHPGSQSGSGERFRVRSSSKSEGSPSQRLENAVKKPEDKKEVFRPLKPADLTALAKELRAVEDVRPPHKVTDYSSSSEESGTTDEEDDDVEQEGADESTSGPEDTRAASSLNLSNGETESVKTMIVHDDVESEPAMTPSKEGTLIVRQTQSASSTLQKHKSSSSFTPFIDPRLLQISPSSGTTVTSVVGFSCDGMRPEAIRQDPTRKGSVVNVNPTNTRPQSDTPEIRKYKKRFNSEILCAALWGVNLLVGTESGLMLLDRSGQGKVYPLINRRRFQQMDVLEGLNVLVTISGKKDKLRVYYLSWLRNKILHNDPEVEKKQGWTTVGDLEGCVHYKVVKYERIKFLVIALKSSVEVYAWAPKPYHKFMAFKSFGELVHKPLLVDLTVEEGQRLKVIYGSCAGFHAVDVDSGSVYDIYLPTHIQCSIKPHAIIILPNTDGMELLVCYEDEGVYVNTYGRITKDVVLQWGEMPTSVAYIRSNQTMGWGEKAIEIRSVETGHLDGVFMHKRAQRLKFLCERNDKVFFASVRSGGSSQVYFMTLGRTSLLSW

Row | Structure (SMILES) | IC50 [3] [µM] | IC50 [4] [µM] | EC50 (BV-2 [5]) [µM] | IC50 [6] [µM] | other results
1 | CN(C(=O)c1cccn(Cc2cccc(F)c2)c1=O)c1ccccc1 |  |  |  |  | Activity (BV-2 [1]): Active; Inhibition activity call [2]: Active
2 | Cc1cc(F)cc(Nc2ncc(Nc3ccc(Oc4ccccc4)cc3)cc2C(N)=O)c1 | 3.79 | 4.29 | 2.66 | 0.87 | 
3 | CN1C(=O)C(Cc2c[nH]c3ccccc23)NC1=S (stereo unspecified) [NECROSTATIN] |  |  |  |  | Activity (BV-2 [7]): Active; Activity (BV-2 [8]): inactive; Activity (Mus musculus [9]): Active; Activity (BV-2 [10]): Active; Activity (Mus musculus [11]): Active; Activity (BV-2 [12]): Active; Activity (BV-2 [13]): 100%; Activity (BV-2 [14]): Active; Activity (BV-2 [15]): 100%; Activity (BV-2 [16]): Active; Activity (Mus musculus [17]): Active; Activity (Mus musculus [18]): Active; Activity (BV-2 [19]): Active; Activity (BV-2 [20]): Active; Activity (BV-2 [21]): inactive; Activity (BV-2 [22]): Active; Activity (BV-2 [23]): Active
4 | C[C@@H](Oc1cc(-c2cnn(C3CCNCC3)c2)cnc1N)c1c(Cl)ccc(F)c1Cl [CRIZOTINIB] |  |  |  |  | Activity (BV-2 [24]): Non-toxic
5 | Cc1cc(F)cc(Nc2ncc(Nc3ccc(F)cc3F)cc2C(N)=O)c1 | 0.78 | 1.92 | 0.15 | 0.29 | 
6 | Cc1cc(F)cc(Nc2ncccc2C(N)=O)c1 | 0.61 | 0.66 | 0.48 | 0.24 | 
7 | COc1ccc(Nc2cnc(Nc3cc(C)cc(F)c3)c(C(N)=O)c2)cc1 | 1.55 | 1.81 | 0.14 | 0.3 | 
8 | O=C(NCCc1ccccc1)C1CCN(C(=O)c2ccccc2F)CC1 |  |  |  |  | Activity (BV-2 [1]): Active; Inhibition activity call [2]: Active
9 | Cc1cc(F)cc(Nc2ncc(Nc3ccc(C(C)(C)C)cc3)cc2C(N)=O)c1 | 0.83 |  | 0.44 | 0.5 | 
10 | Cc1cc(F)cc(Nc2ncc(Nc3ccc(C(F)(F)F)cc3)cc2C(N)=O)c1 | 3.78 | 1.42 | 0.21 | 0.42 | 
11 | Cc1c(Cc2ccccc2)sc(NC(=O)c2ccccc2)c1C(N)=O |  |  |  |  | Activity (BV-2 [1]): Active; Inhibition activity call [2]: Active
12 | O=C1c2cccc3cccc(c23)N1Cc1ccc(F)cc1 |  |  |  |  | Activity (BV-2 [1]): Active; Inhibition activity call [2]: Active
13 | COc1ccc(Nc2cnc(Nc3cc(C)cc(F)c3)c(C(N)=O)c2)c(C)c1 |  | 9.26 | > 3 |  | 
14 | Cc1cc(F)cc(Nc2ncc(Nc3ccccc3)cc2C(N)=O)c1 | 1.27 | 0.76 | 0.37 | 0.38 | 
15 | Nc1cc(-c2ccc(Br)cc2)nn1Cc1ccccc1 |  |  |  |  | Activity (BV-2 [1]): Active; Inhibition activity call [2]: Active
16 | Nc1ccc(-c2cnc(N)c(-c3ccc(Cl)cc3)c2)cn1 |  |  |  |  | Activity (BV-2 [8]): inactive; Activity (BV-2 [25]): inactive; Activity (BV-2 [26]): Active; Activity Similar To Nec-1
17 | Cc1cc(C)cc(Nc2cnc(Nc3cc(C)cc(F)c3)c(C(N)=O)c2)c1 | 0.21 | 0.93 |  | 0.43 | 
18 | Cc1cc(C)c(C(N)=O)c(Nc2ccc(Cl)cc2)n1 |  |  |  |  | Activity (BV-2 [1]): Active; Inhibition activity call [2]: Active
19 | C=Cc1ccc(Nc2cnc(Nc3cc(C)cc(F)c3)c(C(N)=O)c2)cc1 |  | 0.35 | 0.14 | 0.48 | 
20 | Cc1cc(F)cc(Nc2ncc(Nc3ccccc3Cl)cc2C(N)=O)c1 | 0.49 | 0.76 | > 3 | 1.3 | 
21 | CCCc1ccc(Nc2cnc(Nc3cc(C)cc(F)c3)c(C(N)=O)c2)cc1 | 3.31 | 12.9 | > 3 | 1.48 | 
22 | Cc1cc(F)cc(Nc2ncc(Nc3ccccc3C)cc2C(N)=O)c1 |  | 0.97 | > 3 |  | 
23 | Cc1cc(F)cc(Nc2ncc(Nc3ccc4c(c3)OCO4)cc2C(N)=O)c1 |  | 2.23 | 0.16 | 0.66 | 
24 | Cc1cc(F)cc(Nc2ncc(Nc3ccc(C)c(C)c3)cc2C(N)=O)c1 | 1.05 | 1.38 | > 3 | 1.57 | 
25 | Cc1cc(F)cc(Nc2ncc(Nc3ccc(C#N)cc3)cc2C(N)=O)c1 | 3.02 | 0.44 | 0.24 | 0.35 | 
26 | Cc1cc(F)cc(Nc2ncc(Nc3cccc(C#N)c3)cc2C(N)=O)c1 | 2.24 | 0.53 | > 3 | 1.21 | 
27 | Cc1cc(F)cc(Nc2ncc(Nc3ccc4c(c3)CCCC4)cc2C(N)=O)c1 |  | 2.26 | 0.2 | 0.69 | 
28 | Cc1cc(F)cc(Nc2ncc(Nc3ccc(-c4ccco4)cc3)cc2C(N)=O)c1 | 1.45 | 0.65 | 0.12 | 0.36 | 
29 | COc1ccc(Nc2cnc(Nc3cc(C)cc(F)c3)c(C(N)=O)c2)c(F)c1 | 1.46 | 3.16 | 1.54 | 0.96 | 
30 | Cc1cc(Nc2ncc(Cl)c(Nc3ccccc3S(=O)(=O)C(C)C)n2)c(OC(C)C)cc1C1CCNCC1 [CERITINIB] |  |  |  |  | Activity (BV-2 [1]): inactive; Activity (BV-2 [24]): Toxic
